Results: ChEMBL document CHEMBL4354835, “Selective Blockade of Neuronal BK (α + β4) Channels Preventing Epileptic Seizure” (J Med Chem, 2020)
Activity calls are given as the source filed them. No cut-off for these calls is given here.

Legend:
[1] = organism: Rattus norvegicus; assay: Neuroprotective activity in PTZ-induced epileptic seizure Sprague-Dawley rat model assessed as inhibition of hippocampal destruction by measuring increase in Nissl stained pyramidal neurons in ipsilateral hippocampus CA1 region compound infused into hippocampal region and 10 mins later injected with PTZ and measured after 3 days by Nissl staining based microscopic analysis; assay type: functional, organism-based
[2] = organism: Rattus norvegicus; assay: Neuroprotective activity in PTZ-induced epileptic seizure Sprague-Dawley rat model assessed as inhibition of hippocampal destruction by measuring increase in Nissl stained granular neurons in contralateral hippocampus DG region compound infused into hippocampal region and 10 mins later injected with PTZ and measured after 3 days by Nissl staining based microscopic analysis; assay type: functional, organism-based
[3] = molecular target: KCNMA1/KCNMB4 (Homo sapiens, UniProt Q12791+Q86W47); assay: Inhibition of human BK alpha/beta4 channel expressed in HEK293T cells assessed as inhibition of K+ outward current fraction at -80 mV holding potential by whole cell patch clamp technique; assay type: cell-based
Sequence of KCNMA1/KCNMB4 (Q12791 whole entry, one chain of several): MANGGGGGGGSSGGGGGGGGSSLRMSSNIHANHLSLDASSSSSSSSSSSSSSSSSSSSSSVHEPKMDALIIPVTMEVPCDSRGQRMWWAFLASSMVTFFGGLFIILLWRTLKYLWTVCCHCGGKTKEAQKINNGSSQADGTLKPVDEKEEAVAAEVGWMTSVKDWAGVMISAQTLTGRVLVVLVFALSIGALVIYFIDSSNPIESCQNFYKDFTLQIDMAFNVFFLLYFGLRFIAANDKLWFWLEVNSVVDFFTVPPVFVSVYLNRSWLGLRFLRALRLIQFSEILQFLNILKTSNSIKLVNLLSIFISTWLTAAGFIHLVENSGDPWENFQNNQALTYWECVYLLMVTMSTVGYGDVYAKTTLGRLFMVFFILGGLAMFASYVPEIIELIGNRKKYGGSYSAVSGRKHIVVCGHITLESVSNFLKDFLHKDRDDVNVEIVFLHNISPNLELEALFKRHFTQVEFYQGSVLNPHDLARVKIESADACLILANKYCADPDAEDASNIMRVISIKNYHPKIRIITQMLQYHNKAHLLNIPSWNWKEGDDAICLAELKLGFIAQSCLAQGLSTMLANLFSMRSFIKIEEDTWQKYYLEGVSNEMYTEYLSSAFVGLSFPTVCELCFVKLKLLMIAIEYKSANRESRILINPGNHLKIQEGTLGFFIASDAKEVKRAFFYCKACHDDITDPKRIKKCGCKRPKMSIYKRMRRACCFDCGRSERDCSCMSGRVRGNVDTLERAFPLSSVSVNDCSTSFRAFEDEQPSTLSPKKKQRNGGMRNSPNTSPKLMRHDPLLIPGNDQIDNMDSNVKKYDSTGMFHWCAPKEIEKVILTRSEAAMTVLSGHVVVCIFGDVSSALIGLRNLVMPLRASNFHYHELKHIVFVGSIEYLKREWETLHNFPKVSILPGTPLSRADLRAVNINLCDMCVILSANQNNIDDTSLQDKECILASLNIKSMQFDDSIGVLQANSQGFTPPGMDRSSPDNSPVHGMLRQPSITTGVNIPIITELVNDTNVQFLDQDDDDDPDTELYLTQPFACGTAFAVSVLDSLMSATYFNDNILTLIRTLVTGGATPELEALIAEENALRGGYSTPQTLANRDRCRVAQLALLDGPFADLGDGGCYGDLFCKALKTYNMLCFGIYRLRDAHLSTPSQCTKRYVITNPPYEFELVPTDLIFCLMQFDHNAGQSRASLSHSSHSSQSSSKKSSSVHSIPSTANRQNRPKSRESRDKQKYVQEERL

[4] = molecular target: T1, KCNMA1/KCNMB4 (Rattus norvegicus) (UniProt Q62976+Q9ESK8); assay: Inhibition of BK alpha/beta-4 in PTZ-stimulated rat hippocampal pyramidal neurons assessed as slower decay of after hyperpolarization at 300 pA at -80mV holding potential measured after 10 mins by whole cell current clamp assay; assay type: protein-complex assay
[5] = organism: Rattus norvegicus; assay: Effect on neuronal network in PTZ-induced epileptic seizures Sprague-Dawley rat model assessed as lowered PSD at alpha wave band compound infused into hippocampal region and 10 mins later injected with PTZ and measured after 2 hrs by power spectral density analysis; assay type: functional, organism-based
[6] = organism: Rattus norvegicus; assay: Inhibition of C-Fos expression in PTZ-induced epileptic seizures Sprague-Dawley rat model assessed as inhibition of FLI-positive granular neurons in DG region of contralateral hippocampus at 10 uM compound infused into hippocampal region and 10 mins later injected with PTZ and measured after 2 hrs by immunohistochemistry; assay type: functional, organism-based
[7] = organism: Homo sapiens; assay: Inhibition of human BK alpha/human beta-4 E128K mutant expressed in HEK293T cells assessed as K+ fractional outward current at 10 uM at -80 mV holding potential by whole cell patch clamp technique relative to control; assay type: cell-based
[8] = molecular target: T1, KCNMA1/KCNMB4 (Rattus norvegicus); assay: Inhibition of BK alpha/beta-4 in PTZ-stimulated rat hippocampal pyramidal neurons assessed as increase in AHP size at 300 pA at -80mV holding potential measured after 10 mins by whole cell current clamp assay; assay type: protein-complex assay
[9] = organism: Homo sapiens; assay: Inhibition of human BK alpha/human beta4 E122K mutant expressed in HEK293T cells assessed as K+ fractional outward current at 10 uM at -80 mV holding potential by whole cell patch clamp technique relative to control; assay type: cell-based
[10] = organism: Rattus norvegicus; assay: Effect on neuronal network in PTZ-induced epileptic seizures Sprague-Dawley rat model assessed as reduced total PSD frequency waves compound infused into hippocampal region and 10 mins later injected with PTZ and measured after 2 hrs by power spectral density analysis; assay type: functional, organism-based
[11] = molecular target: T1, KCNMA1/KCNMB4 (Rattus norvegicus); assay: Inhibition of BK alpha/beta-4 in PTZ-stimulatedrat hippocampal pyramidal neurons assessed as reduction in neuronal firing rate at -80mV holding potential in presence of 200 to 300 pA current injection measured after 10 mins by whole cell current clamp assay; assay type: protein-complex assay
[12] = organism: Homo sapiens; assay: Inhibition of human BK alpha/human beta-4 E104K mutant expressed in HEK293T cells assessed as K+ fractional outward current at 10 uM at -80 mV holding potential by whole cell patch clamp technique relative to control; assay type: cell-based
[13] = organism: Rattus norvegicus; assay: Neuroprotective activity in PTZ-induced epileptic seizure Sprague-Dawley rat model assessed as inhibition of hippocampal destruction by measuring increase in Nissl stained pyramidal neurons in contralateral hippocampus CA3 region compound infused into hippocampal region and 10 mins later injected with PTZ and measured after 3 days by Nissl staining based microscopic analysis; assay type: functional, organism-based
[14] = molecular target: T2, Calcium-activated potassium channel subunit beta-4 (Homo sapiens) (UniProt Q86W47); assay: Binding affinity to 15N-labelled human BK beta4 (45 to 166 residues) at compound: protein mole ratio of 1:4 by 1H-15N HSQC NMR spectroscopy
T2 sequence (whole entry): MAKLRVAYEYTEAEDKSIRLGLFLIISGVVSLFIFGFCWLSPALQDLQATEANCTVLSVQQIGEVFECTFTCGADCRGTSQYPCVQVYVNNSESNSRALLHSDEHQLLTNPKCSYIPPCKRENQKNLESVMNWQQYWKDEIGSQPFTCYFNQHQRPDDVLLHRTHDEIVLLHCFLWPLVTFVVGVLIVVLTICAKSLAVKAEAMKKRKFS

[15] = organism: Rattus norvegicus; assay: Inhibition of field potential response in PTZ-induced epileptic seizure Sprague-Dawley rat model compound infused into hippocampal region and 10 mins later injected with PTZ and measured after 2 hrs by microarray electrode based analysis; assay type: functional, organism-based
[16] = organism: Rattus norvegicus; assay: Anticonvulsant activity against PTZ-induced epileptic seizure Sprague-Dawley rat model assessed as duration of seizure compound infused into hippocampal region and 10 mins later injected with PTZ and measured for 2 hrs post PTZ-stimulation (reference value: 376 +/- 76.43 sec); assay type: functional
[17] = organism: Rattus norvegicus; assay: Neuroprotective activity in PTZ-induced epileptic seizure Sprague-Dawley rat model assessed as inhibition of hippocampal destruction by measuring increase in Nissl stained pyramidal neurons in contralateral hippocampus CA1 region compound infused into hippocampal region and 10 mins later injected with PTZ and measured after 3 days by Nissl staining based microscopic analysis; assay type: functional, organism-based
[18] = organism: Rattus norvegicus; assay: Anticonvulsant activity against PTZ-induced epileptic seizures Sprague-Dawley rat model assessed as decrease in number of seizures at high stage (stage 4 and 5) compound infused into hippocampal region and 10 mins later injected with PTZ and measured for 2 hrs post-PTZ stimulation; assay type: functional, organism-based
[19] = molecular target: T3, Calcium-activated potassium channel subunit beta-4 (Homo sapiens, UniProt Q86W47); assay: Binding affinity to NT-495 fluorophore reagent labelled human BK beta4 (45 to 166 residues) incubated for 30 mins by microscale thermophoresis assay; details: read-out: Kd
T3 sequence (Q86W47 whole entry): T2 sequence (whole entry)

[20] = molecular target: T1, KCNMA1/KCNMB4 (Rattus norvegicus); assay: Inhibition of BK alpha/beta-4 in PTZ-stimulated rat hippocampal pyramidal neurons assessed as appearance of more action potential failures at -80mV holding potential measured after 10 mins during 300pA current injection by whole cell current clamp assay; assay type: protein-complex assay
[21] = organism: Rattus norvegicus; assay: Inhibition of C-Fos expression in PTZ-induced epileptic seizures Sprague-Dawley rat model assessed as inhibition of FLI-positive pyramidal neurons in CA1 region of ipsilateral hippocampus at 10 uM compound infused into hippocampal region and 10 mins later injected with PTZ and measured after 2 hrs by immunohistochemistry; assay type: functional, organism-based
[22] = organism: Rattus norvegicus; assay: Neuroprotective activity in PTZ-induced epileptic seizure Sprague-Dawley rat model assessed as inhibition of hippocampal destruction by measuring increase in Nissl stained pyramidal neurons in ipsilateral hippocampus CA3 region compound infused into hippocampal region and 10 mins later injected with PTZ and measured after 3 days by Nissl staining based microscopic analysis; assay type: functional, organism-based
[23] = organism: Homo sapiens; assay: Selectivity ratio of compound Kd for NT-495 fluorophore reagent labelled human BK beta4 E104K mutant to compound Kd for NT-495 fluorophore reagent labelled human BK beta4 (45 to 166 residues) by microscale thermophoresis assay
[24] = organism: Rattus norvegicus; assay: Effect on neuronal network in PTZ-induced epileptic seizures Sprague-Dawley rat model assessed as lowered PSD at delta wave band compound infused into hippocampal region and 10 mins later injected with PTZ and measured after 2 hrs by power spectral density analysis; assay type: functional, organism-based
[25] = organism: Rattus norvegicus; assay: Effect on neuronal network in PTZ-induced epileptic seizures Sprague-Dawley rat model assessed as lowered PSD at beta wave band compound infused into hippocampal region and 10 mins later injected with PTZ and measured after 2 hrs by power spectral density analysis; assay type: functional, organism-based

CC[C@H](C)[C@H](NC(=O)[C@H](CC(C)C)NC(=O)CNC(=O)[C@H](Cc1ccccc1)NC(=O)[C@H](CO)NC(=O)CN)C(=O)N[C@@H](CC(=O)O)C(=O)N[C@H](C(=O)N[C@@H](CCCCN)C(=O)N[C@H]1CSSC[C@@H]2NC(=O)[C@H](CCCCN)NC(=O)CNC(=O)[C@H](CCC(N)=O)NC(=O)CNC(=O)[C@H](CO)NC(=O)CNC(=O)[C@H]([C@@H](C)O)NC(=O)[C@H](C(C)C)NC(=O)[C@H](CCCCN)NC(=O)[C@H](CCCCN)NC(=O)[C@@H]3CSSC[C@@H](C(=O)N[C@@H](Cc4ccc(O)cc4)C(=O)O)N[C@@H](CCCNC(=N)N)C(=O)[C@H](CSSC[C@H](NC(=O)[C@H](CCC(=O)O)NC(=O)[C@H](CO)NC(=O)[C@H](CO)NC(=O)[C@H](C)NC(=O)[C@H](Cc4ccccc4)NC1=O)C(=O)N[C@@H](Cc1c[nH]c4ccccc14)C(=O)N[C@@H]([C@@H](C)O)C(=O)N[C@@H](C)C(=O)N3)N[C@@H](CCC(N)=O)C(=O)NC(=O)[C@H](CC(N)=O)NC(=O)[C@H](CC(N)=O)NC(=O)[C@H](CCC(N)=O)NC2=O)C(C)C
Activity [1]: Active
Activity [2]: Active
IC50 [3]: 602 nM
inhibition [4]: Active
Activity [5]: Active
inhibition [6]: Active
Ratio [7]: 0.75
inhibition [8]: Active
Ratio [9]: 0.88
inhibition [10]: Active
inhibition [11]: Active
Ratio [12]: 0.94
Activity [13]: Active
Activity [14]: Active
inhibition [15]: Active
Time [16]: 198 s
Activity [17]: Active
Activity [18]: Active
Kd [19]: 511 µM
inhibition [20]: Active
inhibition [21]: Active
Activity [22]: Active
Selectivity ratio [23]: 1.4
Activity [24]: Active
Activity [25]: Active
